{"source": "paper PMC10374545", "about": "“A small molecule inhibitor of PTP1B and PTPN2 enhances T cell anti-tumor immunity” (Nature Communications, 2023)", "experiment_in_all_cases": "PTP selectivity, DiFMUP assay", "format_in_all_cases": "biochemical", "details_in_all_cases": "DiFMUP at Km", "key": {"STEP": {"target": "T1, STEP (Homo sapiens, UniProt P54829)", "T1 construct": "STEP, residues 258-539; made in house; host or cells: E. coli BL21(DE3)", "T1 sequence (P54829 282-563)": "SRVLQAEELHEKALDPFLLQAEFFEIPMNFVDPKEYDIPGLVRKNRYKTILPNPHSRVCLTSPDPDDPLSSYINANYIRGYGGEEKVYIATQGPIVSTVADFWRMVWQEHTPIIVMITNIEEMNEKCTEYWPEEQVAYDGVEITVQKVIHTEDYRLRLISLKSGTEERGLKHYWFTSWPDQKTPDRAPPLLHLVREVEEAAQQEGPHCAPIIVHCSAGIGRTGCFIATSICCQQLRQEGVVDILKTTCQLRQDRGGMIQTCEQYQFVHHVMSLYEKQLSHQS", "protocol": "(§1) E. coli BL21(DE3) (Novagen) was used as an expression host and the induction of protein expression was carried out in LB media with 1 mM IPTG at 18 °C overnight. Cell pellets were stored at −80 °C for subsequent protein purification.\n(§2) Protein purification of PTPs for enzymatic assays was conducted at 4 °C. Frozen cell pellets were lysed by sonication in 40 ml cold lysis buffer (50 mM Tris-HCl, pH 8.0, 150 mM NaCl, 5 mM imidazole, and 1 mM PMSF) per litre cell pellet. Cell lysates were clarified by centrifugation using a Beckman JA-18 rotor for 15 min at 5308 x g. The supernatant was incubated with HisPur Ni-NTA resin (Thermo Scientific) for 2 h and then packed onto a column and washed with 50 resin volume of buffer A (50 mM Tris-HCl, pH 8.0, 500 mM NaCl, 5 mM imidazole). The His-tagged proteins were eluted with Buffer B (50 mM Tris-HCl, pH=8.0, 500 mM NaCl, 300 mM imidazole,). Pooled His-protein-containing fractions were concentrated, loaded onto a HiLoad 26/600 Superdex 75 column (GE Healthcare Biosciences) and eluted with storage buffer (50 mM Tris-HCl, pH 8.0, 150 mM NaCl, 1 mM DTT, 10% glycerol). […] The protein was aliquoted and stored at −80 °C.\n(§3) The PTP kinetic assay was modified from previous reported protocols[73],[74]. PTP activity was assayed using 6,8-Difluoro-4-Methylumbelliferyl Phosphate (DiFMUP, Invitrogen, cat# D6567,) as a substrate in 3,3-Dimethylglutaric acid (DMG) buffer (50 mM DMG, pH 7.0, 1 mM EDTA, 18 mM NaCl, 0.01% Triton X-100) at 25 °C. To determine the IC50 values, the assays were performed in 96-well plates (Corning Costar 3915). […] The final reaction volume is 200 µl. The reaction was allowed to proceed for 10 min and then quenched by the addition of 40 µl of a 160 µM solution of bpV(Phen) (Sigma-Aldrich, cat# SML0889). The fluorescence signal was measured using a CLARIOstar Plus Microplate Spectrophotometer (BMG Labtech) using excitation and emission wavelengths of 340 nm and 450 nm, respectively. Data were fitted using Prism GraphPad 9.2.0.\n(§4) To determine the mode of inhibition, the reactions were initiated by the addition of enzyme (final concentration for PTP1B and PTPN2 was 0.05 nM) to the reaction mixtures (0.2 ml) containing various concentrations of DiFMUP with different concentrations of the inhibitor. The reaction was allowed to proceed for 10 min and then quenched by the addition of 40 µl of a 160 µM solution of bpV(Phen) (Sigma-Aldrich, cat# SML0889). The fluorescence signal was measured using a CLARIOstar Plus Microplate Spectrophotometer (BMG Labtech) using excitation and emission wavelength of 340 nm and 450 nm, respectively. Data were fitted using Prism GraphPad 9.2.0. For selectivity studies, the inhibition assay for other PTPs were performed under the same conditions as used for PTP1B and PTPN2 except with different DiFMUP concentration corresponding to the Km of the PTP studied."}, "VHZ": {"target": "T2, VHZ (Homo sapiens, UniProt Q9BVJ7)", "T2 construct": "VHZ, residues 1-150; made in house; host or cells: E. coli BL21(DE3)", "T2 sequence (Q9BVJ7 whole entry, the tested form may be a part)": "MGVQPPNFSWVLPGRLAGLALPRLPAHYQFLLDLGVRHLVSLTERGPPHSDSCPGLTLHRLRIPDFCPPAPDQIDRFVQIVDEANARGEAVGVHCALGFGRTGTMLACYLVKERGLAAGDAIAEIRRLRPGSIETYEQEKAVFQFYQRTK", "protocol": "as §1, §2, §3, §4"}, "PTPε": {"target": "T3, PTPε (Homo sapiens, UniProt P23469)", "T3 construct": "PTPε, residues 107-697; made in house; host or cells: E. coli BL21(DE3)", "T3 sequence (P23469 107-697)": "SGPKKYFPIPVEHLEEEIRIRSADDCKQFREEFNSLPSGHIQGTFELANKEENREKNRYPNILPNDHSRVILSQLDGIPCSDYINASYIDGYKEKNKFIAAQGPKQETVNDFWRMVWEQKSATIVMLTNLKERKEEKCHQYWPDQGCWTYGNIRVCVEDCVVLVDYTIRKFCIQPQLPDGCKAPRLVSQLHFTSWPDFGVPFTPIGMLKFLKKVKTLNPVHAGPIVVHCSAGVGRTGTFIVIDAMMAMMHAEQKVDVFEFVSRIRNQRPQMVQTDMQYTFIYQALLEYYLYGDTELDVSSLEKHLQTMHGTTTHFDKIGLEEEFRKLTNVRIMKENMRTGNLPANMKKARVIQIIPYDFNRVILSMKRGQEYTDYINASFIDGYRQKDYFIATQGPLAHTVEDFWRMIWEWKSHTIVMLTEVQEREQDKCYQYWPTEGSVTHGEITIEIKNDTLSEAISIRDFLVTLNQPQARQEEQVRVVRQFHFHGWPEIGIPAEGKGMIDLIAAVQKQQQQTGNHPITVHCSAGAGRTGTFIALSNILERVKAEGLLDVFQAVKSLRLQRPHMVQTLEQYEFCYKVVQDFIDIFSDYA", "protocol": "as §1, §2, §3, §4"}, "LYP": {"target": "T4, LYP (Homo sapiens, UniProt Q9Y2R2)", "T4 construct": "LYP/PTPN22, residues 1-294; made in house; host or cells: E. coli BL21(DE3)", "T4 sequence (Q9Y2R2 1-294)": "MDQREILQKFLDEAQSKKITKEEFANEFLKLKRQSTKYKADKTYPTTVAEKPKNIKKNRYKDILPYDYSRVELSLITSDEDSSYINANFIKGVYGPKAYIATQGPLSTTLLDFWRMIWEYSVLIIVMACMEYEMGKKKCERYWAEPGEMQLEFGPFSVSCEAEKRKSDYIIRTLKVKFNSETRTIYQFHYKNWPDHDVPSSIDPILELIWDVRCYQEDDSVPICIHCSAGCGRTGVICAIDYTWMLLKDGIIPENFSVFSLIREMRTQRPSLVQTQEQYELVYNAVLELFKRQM", "protocol": "as §1, §2, §3, §4"}, "PTP-PEST": {"target": "T5, PTP-PEST (Homo sapiens, UniProt Q05209)", "T5 construct": "PTP-PEST, residues 5-304; made in house; host or cells: E. coli BL21(DE3)", "T5 sequence (Q05209 5-304)": "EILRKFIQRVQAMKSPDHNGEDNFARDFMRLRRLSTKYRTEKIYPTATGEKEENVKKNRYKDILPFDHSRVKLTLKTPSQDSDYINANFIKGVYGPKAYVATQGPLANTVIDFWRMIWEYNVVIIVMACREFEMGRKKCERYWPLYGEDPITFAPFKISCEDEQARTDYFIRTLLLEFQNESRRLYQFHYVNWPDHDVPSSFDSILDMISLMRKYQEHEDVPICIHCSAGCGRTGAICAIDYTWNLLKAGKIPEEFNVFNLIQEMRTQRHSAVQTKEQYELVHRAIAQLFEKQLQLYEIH", "protocol": "as §1, §2, §3, §4"}, "FAP-1": {"target": "T6, FAP-1 (Homo sapiens, UniProt Q12923)", "T6 construct": "FAP1, residues 2124-2485; made in house; host or cells: E. coli BL21(DE3)", "T6 sequence (Q12923 2124-2485)": "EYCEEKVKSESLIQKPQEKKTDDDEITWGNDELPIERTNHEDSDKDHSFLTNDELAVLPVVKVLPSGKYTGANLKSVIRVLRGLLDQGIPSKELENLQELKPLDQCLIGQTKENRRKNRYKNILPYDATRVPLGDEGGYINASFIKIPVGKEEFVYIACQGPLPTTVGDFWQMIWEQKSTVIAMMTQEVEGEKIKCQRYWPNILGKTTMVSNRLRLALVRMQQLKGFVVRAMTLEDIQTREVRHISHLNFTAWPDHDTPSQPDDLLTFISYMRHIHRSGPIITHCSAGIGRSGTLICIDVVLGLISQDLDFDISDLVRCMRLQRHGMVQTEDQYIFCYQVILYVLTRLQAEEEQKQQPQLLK", "protocol": "as §1, §2, §3, §4"}, "CD45": {"target": "T7, CD45 (Homo sapiens, UniProt P08575)", "T7 construct": "CD45, residues 620-1236; made in house; host or cells: E. coli BL21(DE3)", "T7 sequence (P08575 620-1236)": "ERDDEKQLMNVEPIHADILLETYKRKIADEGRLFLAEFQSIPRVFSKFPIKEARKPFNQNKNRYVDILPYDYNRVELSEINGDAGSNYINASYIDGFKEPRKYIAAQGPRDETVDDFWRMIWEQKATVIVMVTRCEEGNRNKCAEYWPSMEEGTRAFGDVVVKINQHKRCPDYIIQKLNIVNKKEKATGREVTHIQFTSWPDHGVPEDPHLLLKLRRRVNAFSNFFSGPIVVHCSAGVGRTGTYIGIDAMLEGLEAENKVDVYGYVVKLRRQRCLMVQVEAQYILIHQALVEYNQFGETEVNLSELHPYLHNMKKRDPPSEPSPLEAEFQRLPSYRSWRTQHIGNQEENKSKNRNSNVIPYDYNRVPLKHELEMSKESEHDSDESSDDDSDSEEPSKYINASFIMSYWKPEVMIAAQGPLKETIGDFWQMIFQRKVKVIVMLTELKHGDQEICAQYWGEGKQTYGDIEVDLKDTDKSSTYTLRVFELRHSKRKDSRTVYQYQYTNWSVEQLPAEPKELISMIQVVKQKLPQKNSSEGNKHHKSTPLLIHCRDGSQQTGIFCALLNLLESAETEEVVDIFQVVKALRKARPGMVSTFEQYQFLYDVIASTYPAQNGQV", "protocol": "as §1, §2, §3, §4"}, "LMPTP": {"target": "T8, LMPTP (Homo sapiens, UniProt P24666)", "T8 construct": "LMWPTP, residues 1-158; made in house; host or cells: E. coli BL21(DE3)", "protocol": "as §1, §2, §3, §4"}, "CDC14A": {"target": "T9, CDC14A (Homo sapiens, UniProt Q9UNH5)", "T9 construct": "CDC14A, residues 1-413; made in house; host or cells: E. coli BL21(DE3)", "T9 sequence (Q9UNH5 1-413)": "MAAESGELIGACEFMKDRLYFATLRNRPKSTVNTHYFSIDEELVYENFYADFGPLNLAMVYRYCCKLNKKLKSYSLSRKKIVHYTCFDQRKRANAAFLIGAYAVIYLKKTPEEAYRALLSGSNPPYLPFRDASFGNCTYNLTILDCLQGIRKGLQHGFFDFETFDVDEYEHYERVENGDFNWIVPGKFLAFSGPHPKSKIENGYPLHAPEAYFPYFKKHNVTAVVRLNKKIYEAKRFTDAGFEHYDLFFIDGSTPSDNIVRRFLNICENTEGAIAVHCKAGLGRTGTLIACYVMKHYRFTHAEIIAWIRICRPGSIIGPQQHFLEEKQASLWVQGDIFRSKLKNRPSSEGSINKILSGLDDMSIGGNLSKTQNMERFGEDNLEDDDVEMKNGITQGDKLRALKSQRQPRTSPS", "protocol": "as §1, §2, §3, §4"}, "SHP-1": {"target": "T10, SHP-1 (Homo sapiens, UniProt P29350)", "T10 construct": "SHP-1, residues 245-543; made in house; host or cells: E. coli BL21(DE3)", "T10 sequence (P29350 245-543)": "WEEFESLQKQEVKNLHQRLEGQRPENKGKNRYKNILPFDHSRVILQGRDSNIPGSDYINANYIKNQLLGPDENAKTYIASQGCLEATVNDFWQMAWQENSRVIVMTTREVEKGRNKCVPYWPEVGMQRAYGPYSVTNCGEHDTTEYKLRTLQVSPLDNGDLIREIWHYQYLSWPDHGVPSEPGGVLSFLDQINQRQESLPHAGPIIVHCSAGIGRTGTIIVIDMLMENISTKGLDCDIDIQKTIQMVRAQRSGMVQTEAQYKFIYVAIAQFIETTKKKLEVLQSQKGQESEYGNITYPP", "protocol": "as §1, §2, §3, §4"}, "PTPα": {"target": "T11, PTPα (Homo sapiens, UniProt P18433)", "T11 construct": "PTPα, residues 173-793; made in house; host or cells: E. coli BL21(DE3)", "protocol": "as §1, §2, §3, §4"}, "HePTP": {"target": "T12, HePTP (Homo sapiens, UniProt P35236)", "T12 construct": "HePTP, residues 22-360; made in house; host or cells: E. coli BL21(DE3)", "T12 sequence (P35236 22-360)": "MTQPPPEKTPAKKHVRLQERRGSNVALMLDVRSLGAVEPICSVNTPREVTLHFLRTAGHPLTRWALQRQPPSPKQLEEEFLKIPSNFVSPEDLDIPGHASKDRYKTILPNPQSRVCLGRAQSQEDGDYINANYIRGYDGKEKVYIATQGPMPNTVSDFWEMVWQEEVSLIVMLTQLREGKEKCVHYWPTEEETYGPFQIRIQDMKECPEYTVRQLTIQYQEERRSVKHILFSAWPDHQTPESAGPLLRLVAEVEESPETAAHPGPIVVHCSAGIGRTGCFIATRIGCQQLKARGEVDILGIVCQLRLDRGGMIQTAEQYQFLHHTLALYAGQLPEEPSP", "protocol": "as §1, §2, §3, §4"}, "Laforin": {"target": "T13, Laforin (Homo sapiens, UniProt O95278)", "T13 construct": "made in house; host or cells: E. coli BL21(DE3)", "T13 sequence (O95278 whole entry)": "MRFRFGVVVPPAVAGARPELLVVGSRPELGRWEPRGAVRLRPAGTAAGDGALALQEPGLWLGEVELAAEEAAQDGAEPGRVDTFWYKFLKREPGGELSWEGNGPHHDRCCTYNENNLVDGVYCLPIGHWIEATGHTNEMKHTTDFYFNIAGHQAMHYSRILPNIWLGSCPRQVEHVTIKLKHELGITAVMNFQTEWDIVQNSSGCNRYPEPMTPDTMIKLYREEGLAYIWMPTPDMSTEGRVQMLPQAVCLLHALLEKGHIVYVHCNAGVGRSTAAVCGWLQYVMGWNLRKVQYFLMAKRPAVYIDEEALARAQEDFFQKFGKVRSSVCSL", "protocol": "as §1, §2, §3, §4"}, "SHP-2": {"target": "T14, SHP-2 (Homo sapiens, UniProt Q06124)", "T14 construct": "SHP-2, residues 224-528; made in house; host or cells: E. coli BL21(DE3)", "T14 sequence (Q06124 224-528)": "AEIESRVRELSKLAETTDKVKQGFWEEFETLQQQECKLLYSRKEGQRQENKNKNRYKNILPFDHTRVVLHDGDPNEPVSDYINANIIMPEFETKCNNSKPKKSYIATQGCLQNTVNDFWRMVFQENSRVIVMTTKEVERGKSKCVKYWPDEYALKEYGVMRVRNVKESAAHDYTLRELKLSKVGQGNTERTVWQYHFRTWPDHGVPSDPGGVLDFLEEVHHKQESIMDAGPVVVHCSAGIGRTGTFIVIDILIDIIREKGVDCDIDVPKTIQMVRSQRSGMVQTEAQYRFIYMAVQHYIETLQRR", "protocol": "as §1, §2, §3, §4"}, "MKP5": {"target": "T15, MKP5 (Homo sapiens, UniProt Q9Y6W6)", "T15 construct": "MKP5, residues 320-647; made in house; host or cells: E. coli BL21(DE3)", "T15 sequence (Q9Y6W6 320-467 limits assumed)": "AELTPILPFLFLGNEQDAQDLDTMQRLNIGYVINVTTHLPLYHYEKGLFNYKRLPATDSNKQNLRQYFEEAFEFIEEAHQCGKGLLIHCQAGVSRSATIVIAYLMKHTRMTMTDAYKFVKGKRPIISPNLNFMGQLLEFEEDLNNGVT", "protocol": "as §1, §2, §3, §4"}, "CDC14B": {"target": "T16, CDC14B (Homo sapiens, UniProt O60729)", "T16 construct": "CDC14B, residues 1-411; made in house; host or cells: E. coli BL21(DE3)", "T16 sequence (O60729 1-411)": "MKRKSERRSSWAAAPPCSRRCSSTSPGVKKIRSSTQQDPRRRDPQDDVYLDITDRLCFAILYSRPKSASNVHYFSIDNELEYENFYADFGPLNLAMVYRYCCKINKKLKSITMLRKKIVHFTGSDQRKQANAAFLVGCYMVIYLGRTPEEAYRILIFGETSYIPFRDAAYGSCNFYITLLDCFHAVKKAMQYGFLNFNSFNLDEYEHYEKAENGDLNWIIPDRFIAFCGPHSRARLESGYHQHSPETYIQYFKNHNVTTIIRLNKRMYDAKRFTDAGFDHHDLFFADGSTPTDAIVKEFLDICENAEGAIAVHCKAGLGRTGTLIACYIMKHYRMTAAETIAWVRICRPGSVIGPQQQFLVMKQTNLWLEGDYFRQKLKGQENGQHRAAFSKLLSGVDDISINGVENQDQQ", "protocol": "as §1, §2, §3, §4"}}}
{"smiles": "CC(C)(O)CCOc1ccc2cc(O)c(N3CC(=O)NS3(=O)=O)c(F)c2c1", "note": "[Compound 182, 5-(1-Fluoro-3-hydroxy-7-(3-hydroxy-3-methylbutoxy)naphthalen-2-yl)−1,2,5-thiadiazolidin-3-one 1,1-dioxide]", "values": [{"measurement": "IC50", "setting": "STEP", "result": "> 20", "unit": "µM"}, {"measurement": "IC50", "setting": "VHZ", "result": "> 20", "unit": "µM"}, {"measurement": "IC50", "setting": "PTPε", "result": "800 ± 100", "unit": "nM"}, {"measurement": "IC50", "setting": "LYP", "result": "> 20", "unit": "µM"}, {"measurement": "IC50", "setting": "PTP-PEST", "result": "> 20", "unit": "µM"}, {"measurement": "IC50", "setting": "FAP-1", "result": "> 20", "unit": "µM"}, {"measurement": "IC50", "setting": "CD45", "result": "> 20", "unit": "µM"}, {"measurement": "IC50", "setting": "LMPTP", "result": "> 20", "unit": "µM"}, {"measurement": "IC50", "setting": "CDC14A", "result": "6.3 ± 0.8", "unit": "µM"}, {"measurement": "IC50", "setting": "SHP-1", "result": "9.1 ± 0.4", "unit": "µM"}, {"measurement": "IC50", "setting": "PTPα", "result": "> 20", "unit": "µM"}, {"measurement": "IC50", "setting": "HePTP", "result": "> 20", "unit": "µM"}, {"measurement": "IC50", "setting": "Laforin", "result": "> 20", "unit": "µM"}, {"measurement": "IC50", "setting": "SHP-2", "result": "19.2 ± 1.7", "unit": "µM"}, {"measurement": "IC50", "setting": "MKP5", "result": "> 20", "unit": "µM"}, {"measurement": "IC50", "setting": "CDC14B", "result": "5.2 ± 1.7", "unit": "µM"}]}
